Results taken from patent US20120115842A1 (priority 2004, published 2012).

Molecular target: T1, human vasopressin V1b receptor (Homo sapiens, UniProt P47901)
T1 construct: expressed in transfected cells; host or cells: CHO-K1 (cell line hV1b-3H2_CHO), membranes
T1 sequence (P47901 1-424): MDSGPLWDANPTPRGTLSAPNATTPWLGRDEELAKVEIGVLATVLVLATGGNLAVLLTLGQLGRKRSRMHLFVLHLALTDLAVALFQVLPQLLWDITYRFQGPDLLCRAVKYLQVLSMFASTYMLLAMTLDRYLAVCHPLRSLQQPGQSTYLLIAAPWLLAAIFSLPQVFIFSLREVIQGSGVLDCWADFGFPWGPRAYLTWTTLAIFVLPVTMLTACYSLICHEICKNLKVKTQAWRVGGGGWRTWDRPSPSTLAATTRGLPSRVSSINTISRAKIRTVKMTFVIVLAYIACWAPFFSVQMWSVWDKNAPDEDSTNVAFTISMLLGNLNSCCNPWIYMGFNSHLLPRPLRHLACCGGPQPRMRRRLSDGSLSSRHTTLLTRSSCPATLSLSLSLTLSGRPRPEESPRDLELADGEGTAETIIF
Assay: Vasopressin V1b receptor binding assay (3H-AVP displacement)
Conditions: for Ki: membranes from CHO-K1 cells with stably expressed human V1b receptors, 1.5 nM 3H-AVP, read-out: affinity constants (Ki) for the human vasopressin V1b receptor; for selectivity vis-a-vis V1b by comparison with V1a, V2 and/or OT: quotient of Ki values: Ki(V1a)/Ki(V1b), Ki(V2)/Ki(V1b) and/or Ki(OT)/Ki(V1b)
Description: The test substances were dissolved in a concentration of 10^−2 M in DMSO and further diluted to 5×10^−4 M to 5×10^−9 M in DMSO. These DMSO solutions were diluted 1:10 with assay buffer. The substance concentration was again diluted 1:5 in the assay mixture.
CHO-K1 cells with stably expressed human vasopressin V1b receptor (clone 3H2) were harvested and homogenized in 50 mM Tris-HCl and in the presence of protease inhibitors (Roche complete Mini #1836170) with a Polytron homogenizer at a medium setting for 2×10 seconds and subsequently centrifuged at 40 000×g for 1 h. The membrane pellet was again homogenized and centrifuged as described and then taken up in 50 mM Tris-HCl, pH 7.4, homogenized and stored in aliquots frozen in liquid nitrogen at −190° C.
The binding assay was carried out by a method based on that of Tahara et al. (Tahara A et al., Brit. J. Pharmacol. 125, 1463-1470 (1998)). The incubation buffer was: 50 mM Tris, 10 mM MgCl2, 0.1% BSA, pH 7.4.
In the assay mixture (250 μl), membranes (50 μg/ml protein in incubation buffer) from CHO-K1 cells with stably expressed human V1b receptors (cell line hV1b—3H2_CHO) were incubated with 1.5 nM ^3H-AVP (8-Arg-vasopressin, PerkinElmer #18479) in incubation buffer (50 mM Tris, 10 mM MgCl2, 0.1% BSA, pH 7.4) (total binding) or additionally with increasing concentrations of test substance (displacement experiment). The nonspecific binding was determined with 1 uM AVP (Bachem # H1780). All determinations were carried out as triplicate determinations. After incubation (60 minutes at room temperature), the free radioligand was removed by vacuum filtration (Skatron cell harvester 7000) through Wathman G F/B glass fiber filter mats, and the filters were transferred into scintillation vials. The liquid scintillation measurement took place in a Tricarb model 2000 or 2200CA instrument (Packard). Conversion of the measured cpm into dpm was carried out with the aid of a standard quench series.
The binding parameters were calculated by nonlinear regression in SAS. The algorithms of the program operate in analogy to the LIGAND analysis program (Munson P J and Rodbard D, Analytical Biochem. 107, 220-239 (1980)). The Kd of ^3H-AVP for the recombinant […] receptors is 0.4 nM and was used to determine the Ki value.

SMILES | Ki [µM] | selectivity vis-a-vis V1b by comparison with V1a, V2 and/or OT
COc1ccc(S(=O)(=O)N2C(=O)C(c3ccccc3OC)(N(C)[C@@H](C)C(=O)N(C)C)c3cc(C#N)ccc32)cc1 (mixture of isomers) [Example 15] | < 0.1 | improved selectivity
COc1ccc(S(=O)(=O)N2C(=O)C(c3ccccc3OC)(N3C[C@H](O)C[C@H]3C(=O)N(C)C)c3cc(C#N)ccc32)cc1 (stereo partly drawn) [Example 19, (−)-(2S,4R)-1-[5-Cyano-1-(4-methoxybenzenesulfonyl)-3-(2-methoxyphenyl)-2-oxo-2,3-dihydro-1H-indol-3-yl]-4-hydroxypyrrolidine-2-dimethylcarboxamide] | < 0.1 | improved selectivity
COc1ccc(S(=O)(=O)N2C(=O)C(c3ccccc3OC)(N3CCC[C@H]3C(=O)N(C)C)c3cc(C#N)ccc32)cc1 (single isomer, unassigned; (+)) [Example 17b] | < 0.1 | improved selectivity

Next, values leading:

Ki [µM] | selectivity vis-a-vis V1b by comparison with V1a, V2 and/or OT | SMILES
< 0.1 | improved selectivity | COc1ccc(S(=O)(=O)N2C(=O)C(c3ccccc3OC)(N3CC(O)CC3C(=O)N(C)C)c3cc(C#N)ccc32)c(OC)c1 (single isomer, unassigned) [Example 1]
 | improved selectivity | COc1ccc(S(=O)(=O)N2C(=O)C(c3ccccc3OC)(N3CC(O)CC3C(=O)N(C)C)c3cc(C#N)ccc32)c(OC)c1 (single isomer, unassigned; (+)) [Example 16]
